Read-outs that look alike come from different tables or passages of the source.
Target: T1, IRAK4 (Homo sapiens, UniProt Q9NWZ3)
T1 construct: Degradation of IRAK4 in OCI-LY10 was quantitatively measured using Meso Scale Discovery technology; endogenous in cells; host or cells: OCI-LY10
T1 sequence (Q9NWZ3 1-460): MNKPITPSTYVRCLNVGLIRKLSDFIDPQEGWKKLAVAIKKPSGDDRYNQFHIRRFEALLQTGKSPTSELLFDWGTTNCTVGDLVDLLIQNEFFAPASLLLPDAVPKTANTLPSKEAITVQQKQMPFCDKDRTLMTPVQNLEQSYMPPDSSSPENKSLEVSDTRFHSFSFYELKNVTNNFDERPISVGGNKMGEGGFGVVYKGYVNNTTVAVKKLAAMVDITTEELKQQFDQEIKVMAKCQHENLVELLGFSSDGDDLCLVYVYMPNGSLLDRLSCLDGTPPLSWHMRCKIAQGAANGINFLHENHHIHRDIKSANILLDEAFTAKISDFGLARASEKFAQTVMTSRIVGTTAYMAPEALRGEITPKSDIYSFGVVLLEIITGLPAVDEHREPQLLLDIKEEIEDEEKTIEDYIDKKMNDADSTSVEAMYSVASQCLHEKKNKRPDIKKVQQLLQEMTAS
Assay: IRAK4 MSD Degradation in OCI-LY10
Type: cell-based
Conditions: OCI-LY10 cells, MSD
In short: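 DC50, from a three-parameter logistic fit and reported as letter bins A (<0.01 μM), B, C, D (>0.2 μM or not tested), reflects IRAK4 loss measured by MSD electrochemiluminescence in OCI-LY10 lysates. Treatment: 8 doses, 1:3 steps, top 1 to 10 μM, 4 to 24 h, 37 °C.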

[1] = 4 hrs incubation, read-out: IRAK4 degradation in OCI-LY10 at 4 hrs: DC50
[2] = 24 hrs incubation, read-out: IRAK4 degradation in OCI-LY10 at 24 hrs: DC50

Structure (SMILES)	DC50 [1] [nM]	DC50 [2] [nM]
Cc1cccc(C(=O)Nc2cc3cn([C@H]4CC[C@H](CN5CC[C@H](c6cccc7c6n(C)c(=O)n7C6CCC(=O)NC6=O)[C@H](F)C5)CC4)nc3cn2)n1 (stereo partly drawn) [I-635]	> 200	> 200
CC([C@H]1CC[C@H](n2cc(NC(=O)c3cnn4ccc(C5CC6C[C@@H]5CO6)nc34)c(C(F)F)n2)CC1)N1CCC(OCC#Cc2cccc3c2n(C)c(=O)n3C2CCC(=O)NC2=O)CC1 (stereo partly drawn) [I-192]	> 200	> 200
C[C@H]1CN(c2ccn3ncc(C(=O)Nc4cn([C@H]5CC[C@H](CN(C)C6CCN(c7cccc8c7n(C)c(=O)n8C7CCC(=O)NC7=O)CC6)CC5)nc4C(F)F)c3n2)C[C@H](C)O1 (stereo partly drawn) [I-441]	< 10	< 10
Cn1c(=O)n(C2CCC(=O)NC2=O)c2cccc(C#CCO[C@H]3CCCN(C[C@H]4CC[C@H](n5cc(NC(=O)c6cnn7ccc(N8C[C@H]9C[C@@H]8CO9)nc67)c(C(F)F)n5)CC4)C3)c21 (stereo partly drawn) [I-128]	10 to 100	> 200
Cn1c(=O)n(C2CCC(=O)NC2=O)c2cccc(C3CCN(C4CCN(C5CCC(n6cc(NC(=O)c7cnn8ccc(N9C[C@H]%10C[C@@H]9CO%10)nc78)c(C(F)F)n6)CC5)CC4)CC3)c21 (stereo partly drawn) [I-423]	> 200	> 200
Cn1c(=O)n(C2CCC(=O)NC2=O)c2cccc(C#CCN3CCN(C[C@H]4CC[C@H](n5cc(NC(=O)c6cnn7ccc(N8CCC(C)(C)CC8)nc67)c(C(F)F)n5)CC4)CC3)c21 (stereo partly drawn) [I-227]	> 200	10 to 100
Cn1c(=O)n(C2CCC(=O)NC2=O)c2cccc(C#CCOC3CCN(C[C@H]4CC[C@H](n5cc(NC(=O)c6cnn7ccc(N8CC9(CCOC9)C8)nc67)c(C(F)F)n5)CC4)CC3)c21 (stereo partly drawn) [I-327]	> 200	< 10
COc1cc2nn([C@H]3CC[C@H](CN4CC[C@H](c5cccc6c5n(C)c(=O)n6C5CCC(=O)NC5=O)[C@@H](F)C4)CC3)cc2cc1NC(=O)c1cccc(C(F)(F)F)n1 (stereo partly drawn) [I-784]	> 200	> 200
COc1ccc2c(c1N1CC(CN3CCN(C[C@H]4CC[C@H](n5cc(NC(=O)c6cnn7ccc(N8C[C@H]9C[C@@H]8CO9)nc67)c(C(F)F)n5)CC4)CC3)C1)n(C)c(=O)n2C1CCC(=O)NC1=O (stereo partly drawn) [I-675]	> 200	< 10
Cn1c(=O)n(C2CCC(=O)NC2=O)c2cccc(C#CCOC3CCN(C[C@H]4CC[C@H](n5cc(NC(=O)c6cnn7ccc(N8CCC9(CC8)COC9)nc67)c(C(F)F)n5)CC4)CC3)c21 (stereo partly drawn) [I-305]	> 200	> 200
Cn1c(=O)n(C2CCC(=O)NC2=O)c2cccc(C#CCN3CCN(C[C@H]4CC[C@H](n5cc(NC(=O)c6cnn7ccc(N8CCOC(C(F)(F)F)C8)nc67)c(C(F)F)n5)CC4)CC3)c21 (stereo partly drawn) [I-322]	> 200	> 200
Cn1c(=O)n(C2CCC(=O)NC2=O)c2cccc(C#CCN3CCCN(C[C@H]4CC[C@H](n5cc(NC(=O)c6cnn7ccc(N8C[C@H]9C[C@@H]8CO9)nc67)c(C(F)F)n5)CC4)CC3)c21 (stereo partly drawn) [I-5]	< 10	> 200
CN(C[C@H]1CC[C@H](n2cc(NC(=O)c3cnn4ccc(N5C[C@H]6C[C@@H]5CO6)nc34)c(C(F)F)n2)CC1)C1CCN(c2cccc3c2n(C)c(=O)n3C2CCC(=O)NC2=O)CC1(F)F (stereo partly drawn) [I-502]	> 200	> 200
COC(C)(C)c1ccn2ncc(C(=O)Nc3cn([C@H]4CC[C@H](CN5CCN(CC#Cc6cccc7c6n(C)c(=O)n7C6CCC(=O)NC6=O)CC5)CC4)nc3C(F)F)c2n1 (stereo partly drawn) [I-220]	> 200	> 200
Cn1c(=O)n(C2CCC(=O)NC2=O)c2cccc(C[C@@H]3CN(Cc4ccc(-n5cc(NC(=O)c6cnn7cccnc67)c(C(F)F)n5)cc4)CCO3)c21 (stereo partly drawn) [I-392]	> 200	> 200
CN(C[C@H]1CC[C@H](n2cc(NC(=O)c3cnn4ccc(N5CCO[C@@H](C(F)F)C5)nc34)c(C(F)F)n2)CC1)C1CCN(c2cccc3c2n(C)c(=O)n3C2CCC(=O)NC2=O)CC1(F)F (stereo partly drawn) [I-535]	> 200	> 200
Cn1c(=O)n(C2CCC(=O)NC2=O)c2cccc([C@H]3C[C@H](COC4CCN(C[C@H]5CC[C@H](n6cc(NC(=O)c7cnn8ccc(N9C[C@H]%10C[C@@H]9CO%10)nc78)c(C(F)F)n6)CC5)CC4F)C3)c21 (stereo partly drawn) [I-571]	> 200	> 200
O=C1CCN(c2cc(C#CCOC3CCN(C[C@H]4CC[C@H](n5cc(NC(=O)c6cnn7ccc(N8C[C@H]9C[C@@H]8CO9)nc67)c(C(F)F)n5)CC4)CC3)ccc2Cl)C(=O)N1 [I-256]	> 200	> 200
Cn1c(=O)n(C2CCC(=O)NC2=O)c2cccc(C#CCN3CCN(C[C@H]4CC[C@H](n5cc(NC(=O)c6cnn7ccc([C@H]8CCOC8)nc67)c(C(F)F)n5)CC4)CC3)c21 (stereo partly drawn) [I-354]	> 200	> 200
C[C@@H]1CN(c2ccn3ncc(C(=O)Nc4cn([C@H]5CC[C@H](CN(C)C6CCN(c7cccc8c7n(C)c(=O)n8C7CCC(=O)NC7=O)CC6)CC5)nc4C(F)F)c3n2)CCO1 (stereo partly drawn) [I-428]	> 200	< 10
Cn1c(=O)n(C2CCC(=O)NC2=O)c2cccc(C3CCN(C[C@H]4CC[C@H](n5cc6cc(NC(=O)c7cccc(C#N)n7)c(C(C)(C)O)cc6n5)CC4)CC3(F)F)c21 (stereo partly drawn) [I-618]	> 200	< 10
COc1cc2nn([C@H]3CC[C@H](CN4CCC5(CC4)CCN(c4cccc(N6CCC(=O)NC6=O)c4)CC5)CC3)cc2cc1NC(=O)c1cncc(C#N)c1 [I-85]	> 200	> 200
CN(C[C@H]1CC[C@H](n2cc(NC(=O)c3cnn4ccc(N5CCOC6(CC6)C5)nc34)c(C(F)F)n2)CC1)C1CCN(c2cccc3c2n(C)c(=O)n3C2CCC(=O)NC2=O)CC1(F)F (stereo partly drawn) [I-539]	> 200	> 200
Cn1c(=O)n(C2CCC(=O)NC2=O)c2cccc(C#CCOC3CCN(CC4CCN(c5cnc(C(F)F)c(NC(=O)c6cnn7ccc(N8C[C@H]9C[C@@H]8CO9)nc67)c5)CC4)CC3)c21 (stereo partly drawn) [I-179]	> 200	> 200
Cn1c(=O)n(C2CCC(=O)NC2=O)c2cccc(C#CCN3CCN(C[C@H]4CC[C@H](n5cc(NC(=O)c6cnn7ccc(N8CCOC(F)(F)C8)nc67)c(C(F)F)n5)CC4)CC3)c21 (stereo partly drawn) [I-324]	> 200	> 200
Cn1c(=O)n(C2CCC(=O)NC2=O)c2cccc(C#CCO[C@@H]3CCN(C[C@H]4CC[C@H](n5cc(NC(=O)c6cnn7ccc(N8C[C@H]9C[C@@H]8CO9)nc67)c(C(F)F)n5)CC4)C[C@@H]3F)c21 (stereo partly drawn) [I-35]	10 to 100	> 200
Cn1c(=O)n(C2CCC(=O)NC2=O)c2cccc(N3CCN([C@H]4CCN(C[C@H]5CC[C@H](n6cc(NC(=O)c7cnn8ccc(N9C[C@H]%10C[C@@H]9CO%10)nc78)c(C(F)F)n6)CC5)CC4(F)F)CC3)c21 (stereo partly drawn) [I-721]	> 200	< 10
Cn1c(=O)n(C2CCC(=O)NC2=O)c2cccc(C#CCO[C@H]3CCN(C[C@H]4CC[C@H](n5cc(NC(=O)c6cnn7ccc(N8CCS(=O)(=O)CC8)nc67)c(C(F)F)n5)CC4)C[C@H]3F)c21 (stereo partly drawn) [I-592]	> 200	> 200
Cn1c(=O)n(C2CCC(=O)NC2=O)c2cccc(N3CC[C@@H](CN4CCN(C[C@H]5CC[C@H](n6cc(NC(=O)c7cnn8ccc(N9C[C@H]%10C[C@@H]9CO%10)nc78)c(C(F)F)n6)CC5)CC4)C3)c21 (stereo partly drawn) [I-363]	> 200	> 200
COc1ccc2c(c1C1CCN(C[C@H]3CC[C@H](n4cc5cc(NC(=O)c6cccc(C(F)(F)F)n6)ncc5n4)CC3)CC1(F)F)n(C)c(=O)n2C1CCC(=O)NC1=O (stereo partly drawn) [I-448]	> 200	> 200

Source: patent US12091411B2, “IRAK degraders and uses thereof” (Kymera Therapeutics, Inc., priority 2022, dated 2024)
